Test results taken from patent US20110082130A1 (LIGAND PHARMACEUTICALS, INC., priority 2006, published 2011).

Biological target: T1, chimeric human H3 receptor (Homo sapiens, UniProt Q9Y5N1)
T1 construct: made in house; host or cells: Sf9 insect cells (baculovirus); P2 membrane preparation
Test: Chimeric human H3 receptor screening GTP binding assay (inhibition of histamine-stimulated GTP-gamma35S binding, Example 8)
Format: biochemical
Details: 4 μM of the compound, 1 μM histamine, "†" in Ki of Table II, read-out: percent inhibition of the signal obtained with 1 μM histamine
Method in brief: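 Sf9 membranes co-expressing chimeric human H3 receptor and heterotrimeric G-protein, 35 μg per reaction, incubated 60 min at room temperature with 4 μM compound, 1 μM histamine, 10 μM GDP and […] GTP-gamma35S at pH 7.4. Filter-bound radioactivity counted. Result expressed as percent inhibition of the histamine signal after subtracting non-specific binding (10 μM GTP-gammaS).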

T1 sequence (Q9Y5N1 with tags, fused parts or gaps): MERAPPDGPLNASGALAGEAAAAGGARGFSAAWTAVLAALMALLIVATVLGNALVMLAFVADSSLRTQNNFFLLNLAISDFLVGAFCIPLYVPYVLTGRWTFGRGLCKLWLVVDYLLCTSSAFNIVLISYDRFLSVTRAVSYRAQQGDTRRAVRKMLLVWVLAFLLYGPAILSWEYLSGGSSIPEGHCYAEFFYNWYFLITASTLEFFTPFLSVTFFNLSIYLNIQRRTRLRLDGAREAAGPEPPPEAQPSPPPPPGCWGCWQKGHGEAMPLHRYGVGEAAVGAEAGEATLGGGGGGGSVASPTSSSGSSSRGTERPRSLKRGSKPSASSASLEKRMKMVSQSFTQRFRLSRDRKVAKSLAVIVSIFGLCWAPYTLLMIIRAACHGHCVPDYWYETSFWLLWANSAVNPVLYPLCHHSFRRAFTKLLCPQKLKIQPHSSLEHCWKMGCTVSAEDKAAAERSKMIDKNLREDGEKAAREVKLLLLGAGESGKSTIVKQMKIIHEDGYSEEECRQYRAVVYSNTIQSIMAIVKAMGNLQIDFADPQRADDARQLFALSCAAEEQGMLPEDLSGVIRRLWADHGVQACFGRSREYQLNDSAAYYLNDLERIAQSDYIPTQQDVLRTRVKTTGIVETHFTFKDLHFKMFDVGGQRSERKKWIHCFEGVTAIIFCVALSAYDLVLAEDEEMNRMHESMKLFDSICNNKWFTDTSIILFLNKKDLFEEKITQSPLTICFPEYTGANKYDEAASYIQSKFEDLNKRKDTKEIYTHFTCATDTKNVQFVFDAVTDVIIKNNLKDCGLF

Inhibition at 4 µM, ≥ 90%:
Cc1ccc(-c2ccc3c(c2)CCN(CC(=O)N2CCN(C4CCCCC4)CC2)C3)cc1 [Compound 437, 2-[2-(4-cyclohexylpiperazin-1-yl)-2-oxoethyl]-6-(4-methylphenyl)-1,2,3,4-tetrahydroisoquinoline]
O=C(CN1CCc2cc(-c3ccccc3)ccc2C1)N1CCN(C2CCCC2)CC1 [Compound 399, 2-[2-(4-cyclopentylpiperazin-1-yl)-2-oxoethyl]-6-phenyl-1,2,3,4-tetrahydroisoquinoline]
O=C(CN1CCc2cc(-c3ccc(OC(F)(F)F)cc3)ccc2C1)N1CCN(C2CCC2)CC1 [Compound 478, 2-[2-(4-cyclobutylpiperazin-1-yl)-2-oxoethyl]-6-[4-(trifluoromethoxy)phenyl]-1,2,3,4-tetrahydroisoquinoline]
O=C(CN1CCc2cc(-c3ccccc3F)ccc2C1)N1CCN(C2CCCC2)CC1 [Compound 415, 2-[2-(4-cyclopentylpiperazin-1-yl)-2-oxoethyl]-6-(2-fluorophenyl)-1,2,3,4-tetrahydroisoquinoline]
CC(C)c1cccc(-c2ccc3c(c2)CCN(CC(=O)N2CCN(C4CCCC4)CC2)C3)c1 [Compound 440, 2-[2-(4-cyclopentylpiperazin-1-yl)-2-oxoethyl]-6-(3-isopropylphenyl)-1,2,3,4-tetrahydroisoquinoline]
CC(C)(C)c1ccc(-c2ccc3c(c2)CCN(CC(=O)N2CCN(C4CCCCC4)CC2)C3)cc1 [Compound 473, 6-(4-tert-butylphenyl)-2-[2-(4-cyclohexylpiperazin-1-yl)-2-oxoethyl]-1,2,3,4-tetrahydroisoquinoline]
CC(C)c1cccc(-c2ccc3c(c2)CCN(CC(=O)N2CCN(C4CCC4)CC2)C3)c1 [Compound 439, 2-[2-(4-cyclobutylpiperazin-1-yl)-2-oxoethyl]-6-(3-isopropylphenyl)-1,2,3,4-tetrahydroisoquinoline]
Cc1ccc(-c2ccc3c(c2)CCN(CC(=O)N2CCN(C4CCC4)CC2)C3)cc1C [Compound 447, 2-[2-(4-cyclobutylpiperazin-1-yl)-2-oxoethyl]-6-(3,4-dimethylphenyl)-1,2,3,4-tetrahydroisoquinoline]
Cc1ccc(F)c(-c2ccc3c(c2)CCN(CC(=O)N2CCN(C4CCCCC4)CC2)C3)c1 [Compound 425, 2-[2-(4-cyclohexylpiperazin-1-yl)-2-oxoethyl]-6-(2-fluoro-5-methylphenyl)-1,2,3,4-tetrahydroisoquinoline]
CC(C)c1cccc(-c2ccc3c(c2)CCN(CC(=O)N2CCN(C(C)C)CC2)C3)c1 [Compound 442, 6-(3-isopropylphenyl)-2-[2-(4-isopropylpiperazin-1-yl)-2-oxoethyl]-1,2,3,4-tetrahydroisoquinoline]
O=C(CN1CCc2cc(-c3ccc(Cl)cc3)ccc2C1)N1CCN(C2CCCC2)CC1 [Compound 405, 6-(4-chlorophenyl)-2-[2-(4-cyclopentylpiperazin-1-yl)-2-oxoethyl]-1,2,3,4-tetrahydroisoquinoline]
Cc1cc(C)cc(-c2ccc3c(c2)CCN(CC(=O)N2CCN(C4CCCCC4)CC2)C3)c1 [Compound 457, 2-[2-(4-cyclohexylpiperazin-1-yl)-2-oxoethyl]-6-(3,5-dimethylphenyl)-1,2,3,4-tetrahydroisoquinoline]
Cc1cc(-c2ccc3c(c2)CCN(CC(=O)N2CCN(C4CCCC4)CC2)C3)ccc1F [Compound 430, 2-[2-(4-cyclopentylpiperazin-1-yl)-2-oxoethyl]-6-(4-fluoro-3-methylphenyl)-1,2,3,4-tetrahydroisoquinoline]
CC(C)c1ccc(-c2ccc3c(c2)CCN(CC(=O)N2CCN(C4CCC4)CC2)C3)cc1 [Compound 443, 2-[2-(4-cyclobutylpiperazin-1-yl)-2-oxoethyl]-6-(4-isopropylphenyl)-1,2,3,4-tetrahydroisoquinoline]
Cc1ccc(-c2ccc3c(c2)CCN(CC(=O)N2CCN(C4CCCC4)CC2)C3)cc1F [Compound 427, 2-[2-(4-cyclopentylpiperazin-1-yl)-2-oxoethyl]-6-(3-fluoro-4-methylphenyl)-1,2,3,4-tetrahydroisoquinoline]

Same assay, conditions: Table II "Ki", symbol †, 4 μM of the compound, 1 μM histamine, read-out: percent inhibition of the signal obtained with 1 μM histamine

Inhibition at 4 µM, ≥ 90%:
COc1ccc(-c2ccc3c(c2)CCN(CC(=O)N2CCN(C4CCC4)CC2)C3)c(OC)c1 [Compound 563, 2-[2-(4-cyclobutylpiperazin-1-yl)-2-oxoethyl]-6-(2,4-dimethoxyphenyl)-1,2,3,4-tetrahydroisoquinoline]
COc1cc(-c2ccc3c(c2)CCN(CC(=O)N2CCN(C(C)C)CC2)C3)cc(OC)c1OC [Compound 519, 2-[2-(4-isopropylpiperazin-1-yl)-2-oxoethyl]-6-(3,4,5-trimethoxyphenyl)-1,2,3,4-tetrahydroisoquinoline]
O=C(CN1CCc2cc(-c3cc(F)cc(F)c3)ccc2C1)N1CCN(C2CCC2)CC1 [Compound 596, 2-[2-(4-cyclobutylpiperazin-1-yl)-2-oxoethyl]-6-(3,5-difluorophenyl)-1,2,3,4-tetrahydroisoquinoline]
COc1ccc(-c2ccc(-c3ccc4c(c3)CCN(CC(=O)N3CCN(C5CCC5)CC3)C4)cc2)cc1 [Compound 498, 2-[2-(4-cyclobutylpiperazin-1-yl)-2-oxoethyl]-6-(4′-methoxybiphenyl-4-yl)-1,2,3,4-tetrahydroisoquinoline]
O=C(CN1CCc2cc(-c3cc(F)cc(F)c3)ccc2C1)N1CCN(C2CCCCC2)CC1 [Compound 598, 2-[2-(4-cyclohexylpiperazin-1-yl)-2-oxoethyl]-6-(3,5-difluorophenyl)-1,2,3,4-tetrahydroisoquinoline]
COc1ccc(-c2ccc3c(c2)CCN(CC(=O)N2CCN(C4CCCCC4)CC2)C3)c(OC)c1 [Compound 565, 2-[2-(4-cyclohexylpiperazin-1-yl)-2-oxoethyl]-6-(2,4-dimethoxyphenyl)-1,2,3,4-tetrahydroisoquinoline]
CN(C)c1cccc(-c2ccc3c(c2)CCN(CC(=O)N2CCN(C4CCCCC4)CC2)C3)c1 [Compound 538, 3-{2-[2-(4-cyclohexylpiperazin-1-yl)-2-oxoethyl]-1,2,3,4-tetrahydroisoquinolin-6-yl}-N,N-dimethylaniline]
O=C(CN1CCc2cc(-c3ccc(F)c(Cl)c3)ccc2C1)N1CCN(C2CCC2)CC1 [Compound 579, 6-(3-chloro-4-fluorophenyl)-2-[2-(4-cyclobutylpiperazin-1-yl)-2-oxoethyl]-1,2,3,4-tetrahydroisoquinoline]
COc1ccc(C)cc1-c1ccc2c(c1)CCN(CC(=O)N1CCN(C3CCC3)CC1)C2 [Compound 572, 2-[2-(4-cyclobutylpiperazin-1-yl)-2-oxoethyl]-6-(2-methoxy-5-methylphenyl)-1,2,3,4-tetrahydroisoquinoline]
CC(C)C(C)N1CCN(C(=O)CN2CCc3cc(-c4cncnc4)ccc3C2)CC1 (stereo not drawn) [Compound 607, 2-{2-[4-(1,2-dimethylpropyl)piperazin-1-yl]-2-oxoethyl}-6-pyrimidin-5-yl-1,2,3,4-tetrahydroisoquinoline]
COc1ccc2cc(-c3ccc4c(c3)CCN(CC(=O)N3CCN(C5CCCCC5)CC3)C4)ccc2c1 [Compound 511, 2-[2-(4-cyclohexylpiperazin-1-yl)-2-oxoethyl]-6-(6-methoxy-2-naphthyl)-1,2,3,4-tetrahydroisoquinoline]
CCCCN1CCN(C(=O)CN2CCc3cc(-c4cncnc4)ccc3C2)CC1 [Compound 604, 2-[2-(4-butylpiperazin-1-yl)-2-oxoethyl]-6-pyrimidin-5-yl-1,2,3,4-tetrahydroisoquinoline]
CC(C)CN1CCN(C(=O)CN2CCc3cc(-c4cncnc4)ccc3C2)CC1 [Compound 605, 2-[2-(4-isobutylpiperazin-1-yl)-2-oxoethyl]-6-pyrimidin-5-yl-1,2,3,4-tetrahydroisoquinoline]
O=C(CN1CCc2cc(-c3ccc(F)c(F)c3)ccc2C1)N1CCN(C2CCCCC2)CC1 [Compound 591, 2-[2-(4-cyclohexylpiperazin-1-yl)-2-oxoethyl]-6-(3,4-difluorophenyl)-1,2,3,4-tetrahydroisoquinoline]
CSc1cccc(-c2ccc3c(c2)CCN(CC(=O)N2CCN(C4CCCC4)CC2)C3)c1 [Compound 495, 2-[2-(4-cyclopentylpiperazin-1-yl)-2-oxoethyl]-6-[3-(methylthio)phenyl]-1,2,3,4-tetrahydroisoquinoline]
CC(C)OCCNc1ccc2c(n1)CCN(CC(=O)N1CCN(C3CCC3)CC1)C2 [Compound 668, 6-[2-(4-cyclobutylpiperazin-1-yl)-2-oxoethyl]-N-(2-isopropoxyethyl)-5,6,7,8-tetrahydro-1,6-naphthyridin-2-amine]
O=C(CN1CCc2cc(-c3cccc(OC(F)(F)F)c3)ccc2C1)N1CCN(C2CCC2)CC1 [Compound 490, 2-[2-(4-cyclobutylpiperazin-1-yl)-2-oxoethyl]-6-[3-(trifluoromethoxy)phenyl]-1,2,3,4-tetrahydroisoquinoline]
CCOc1ccc(-c2ccc3c(c2)CCN(CC(=O)N2CCN(C4CCCCC4)CC2)C3)cc1 [Compound 530, 2-[2-(4-cyclohexylpiperazin-1-yl)-2-oxoethyl]-6-(4-ethoxyphenyl)-1,2,3,4-tetrahydroisoquinoline]
